# Literature values as cited in US12622943B2, “Composition for relieving woman menopausal symptom comprising a mixed extract of hop and citrus peel and method for treating or alleviating menopausal symptom using the same” (LG HOUSEHOLD & HEALTH CARE LTD., priority 2022, dated 2026).
# System: uterine weight
# Settings: administered to animals at high doses
compound,measurement,value
CC(C)=CCc1c(O)cc(O)c2c1O[C@H](c1ccc(O)cc1)CC2=O [8-Prenylnaringenin],uterine weight,increased
